Patent US12122761B2, “2-azaspiro[3.4]octane derivatives as M4 agonists” (NOVARTIS AG, priority 2019, dated 2024)

Molecular target: T1, Cloned human M1 receptor (CHRM1) stably expressed in HEK293 cells (Homo sapiens, UniProt P11229)
T1 construct: expressed in transfected cells; host or cells: HEK293
T1 sequence (P11229 1-460): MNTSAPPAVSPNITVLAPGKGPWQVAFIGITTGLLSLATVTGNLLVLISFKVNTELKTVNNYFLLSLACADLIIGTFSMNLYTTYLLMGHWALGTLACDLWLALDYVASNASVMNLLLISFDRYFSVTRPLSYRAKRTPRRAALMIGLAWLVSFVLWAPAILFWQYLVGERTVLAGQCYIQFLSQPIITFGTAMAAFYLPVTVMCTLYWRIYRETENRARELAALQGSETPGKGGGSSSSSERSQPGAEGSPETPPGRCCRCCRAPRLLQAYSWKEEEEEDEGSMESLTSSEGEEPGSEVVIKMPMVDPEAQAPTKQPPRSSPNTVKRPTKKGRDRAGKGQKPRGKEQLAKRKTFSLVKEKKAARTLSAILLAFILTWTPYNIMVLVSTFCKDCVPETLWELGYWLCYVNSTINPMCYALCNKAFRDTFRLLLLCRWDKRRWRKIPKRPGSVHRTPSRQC
Experiment: CHRM1 Ca++ Flux Assay (agonist mode, FDSS 7000EX)
Format: cell-based
Settings: for Emax: HEK293, Percent Activity, read-out: M1 FDSS PA; for EC50: geometric mean if tested more than once
How it was run: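 Compounds tested as agonists at 11 concentrations in triplicate, with calcium traces captured over 3 minutes. Cells were HEK293 with stable human CHRM1 expression, plated overnight at 25K/well and loaded with calcium dye. Responses normalized to carbachol EC100 and fitted by four-parameter nonlinear regression.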

Emax [%] | EC50 [nM] | Compound
87 | 11 | O=C(C1COC1)N1CC2(CC[C@@H](N3CCC(c4ccccc4Oc4nccs4)CC3)C2)C1 [Example 7C, (R)-oxetan-3-yl(6-(4-(2-(thiazol-2-yloxy)phenyl)piperidin-1-yl)-2-azaspiro[3.4]octan-2-yl)methanone]
86 | 116 | O=C(C1COC1)N1CC2(CC[C@@H](N3CCC(c4ccccc4OCCOC(F)(F)F)CC3)C2)C1 [Example 7DD, (R)-oxetan-3-yl(6-(4-(2-(2-(trifluoromethoxy)ethoxy)phenyl)piperidin-1-yl)-2-azaspiro[3.4]octan-2-yl)methanone]
80 | 11 | O=C(C1COC1)N1CC2(CC[C@@H](N3CCC(c4ccccc4OCCC4COC4)CC3)C2)C1 [Example 7KK, (R)-oxetan-3-yl(6-(4-(2-(2-(oxetan-3-yl)ethoxy)phenyl)piperidin-1-yl)-2-azaspiro[3.4]octan-2-yl)methanone]
61 | 178 | c1ccc(C2CCN([C@@H]3CCC4(C3)CN(c3nnco3)C4)CC2)c(C2CCOCC2)c1 [Example 2H, (R)-2-(6-(4-(2-(tetrahydro-2H-pyran-4-yl)phenyl)piperidin-1-yl)-2-azaspiro[3.4]octan-2-yl)-1,3,4-oxadiazole]
55 | 616 | c1ccc(C2CCN([C@@H]3CCC4(C3)CN(c3nncs3)C4)CC2)c(OCC2CCOCC2)c1 [Example 1I, (R)-2-(6-(4-(2-((tetrahydro-2H-pyran-4-yl)methoxy)phenyl)piperidin-1-yl)-2-azaspiro[3.4]octan-2-yl)-1,3,4-thiadiazole]
112 | 277 | c1ccc(C2CCN([C@@H]3CCC4(C3)CN(c3nnco3)C4)CC2)c(OC2CCOCC2)c1 [Example 2F, (R)-2-(6-(4-(2-((tetrahydro-2H-pyran-4-yl)oxy)phenyl)piperidin-1-yl)-2-azaspiro[3.4]octan-2-yl)-1,3,4-oxadiazole]
63 | 237 | c1ccc(C2CCN([C@@H]3CCC4(C3)CN(c3nnco3)C4)CC2)c(OC2CC3(COC3)C2)c1 [Example 1A, (R)-2-(6-(4-(2-((2-oxaspiro[3.3]heptan-6-yl)oxy)phenyl)piperidin-1-yl)-2-azaspiro[3.4]octan-2-yl)-1,3,4-oxadiazole]
57 | 186 | CC(C)(O)COc1ccccc1C1CCN([C@@H]2CCC3(C2)CN(c2ncns2)C3)CC1 [Example 3K, (R)-1-(2-(1-(2-(1,2,4-thiadiazol-5-yl)-2-azaspiro[3.4]octan-6-yl)piperidin-4-yl)phenoxy)-2-methylpropan-2-ol]
0 | 6440 | O=C(N1CC2(CC[C@H](N3CCC(c4ccccc4C4CCOCC4)CC3)C2)C1)C1(F)CC1 (single isomer, unassigned) [Example 9M]
80 | 72 | c1ccc(C2CCN([C@@H]3CCC4(C3)CN(c3nncs3)C4)CC2)c(OCC2COC2)c1 [Example 1G, (R)-2-(6-(4-(2-(oxetan-3-ylmethoxy)phenyl)piperidin-1-yl)-2-azaspiro[3.4]octan-2-yl)-1,3,4-thiadiazole]
79 | 59 | COCCOc1ccccc1C1CCN([C@@H]2CCC3(C2)CN(c2nnco2)C3)CC1 [Example 2C]
65 | 37 | O=C(C1COC1)N1CC2(CC[C@@H](N3CCC(c4ccccc4OC4CCCC4)CC3)C2)C1 [Example 7G, (R)-(6-(4-(2-(cyclopentyloxy)phenyl)piperidin-1-yl)-2-azaspiro[3.4]octan-2-yl)(oxetan-3-yl)methanone]
98 | 73 | O=C(C1COC1)N1CC2(CC[C@@H](N3CCC(c4ccccc4OCCOC4COC4)CC3)C2)C1 [Example 7EE, (R)-oxetan-3-yl(6-(4-(2-(2-(oxetan-3-yloxy)ethoxy)phenyl)piperidin-1-yl)-2-azaspiro[3.4]octan-2-yl)methanone]
61 | 102 | Fc1cncc(N2CC3(CC[C@@H](N4CCC(c5ccccc5C5CCOCC5)CC4)C3)C2)c1 [Example 5AA, (R)-2-(5-fluoropyridin-3-yl)-6-(4-(2-(tetrahydro-2H-pyran-4-yl)phenyl)piperidin-1-yl)-2-azaspiro[3.4]octane]
60 | 52 | Fc1cccc(C2CCN([C@@H]3CCC4(C3)CN(c3cncnc3)C4)CC2)c1OC1COC1 [Example 5W, (R)-6-(4-(3-fluoro-2-(oxetan-3-yloxy)phenyl)piperidin-1-yl)-2-(pyrimidin-5-yl)-2-azaspiro[3.4]octane]
89 | 103 | O=C(C1COC1)N1CC2(CC[C@@H](N3CCC(c4ccccc4OCC4(C(F)(F)F)CC4)CC3)C2)C1 [Example 7II, (R)-oxetan-3-yl(6-(4-(2-((1-(trifluoromethyl)cyclopropyl)methoxy)phenyl)piperidin-1-yl)-2-azaspiro[3.4]octan-2-yl)methanone]
2 | 672 | CC(C)(O)COc1ccccc1C1CCN([C@@H]2CCC3(C2)CN(c2ncncn2)C3)CC1 [Example 5U, (R)-1-(2-(1-(2-(1,3,5-triazin-2-yl)-2-azaspiro[3.4]octan-6-yl)piperidin-4-yl)phenoxy)-2-methylpropan-2-ol]
107 | 36 | c1ccc(C2CCN([C@@H]3CCC4(C3)CN(c3nnco3)C4)CC2)c(O[C@@H]2CCOC2)c1 [Example 2B, 2-((R)-6-(4-(2-(((R)-tetrahydrofuran-3-yl)oxy)phenyl)piperidin-1-yl)-2-azaspiro[3.4]octan-2-yl)-1,3,4-oxadiazole]
42 | 166 | c1ccc(C2CCN([C@@H]3CCC4(C3)CN(c3cncnc3)C4)CC2)c(OC2CCOCC2)c1 [Example 1L, (R)-2-(pyrimidin-5-yl)-6-(4-(2-((tetrahydro-2H-pyran-4-yl)oxy)phenyl)piperidin-1-yl)-2-azaspiro[3.4]octane]
0 | > 25000 | COCCOc1ccccc1C1CCN([C@@H]2CCC3(C2)CN(c2cnc(C)cn2)C3)CC1 [Example 5Y, (R)-6-(4-(2-(2-methoxyethoxy)phenyl)piperidin-1-yl)-2-(5-methylpyrazin-2-yl)-2-azaspiro[3.4]octane]
89 | 19 | c1ccc(C2CCN([C@@H]3CCC4(C3)CN(c3nnco3)C4)CC2)c(OC2COC2)c1 [Example 1D, (R)-2-(6-(4-(2-(oxetan-3-yloxy)phenyl)piperidin-1-yl)-2-azaspiro[3.4]octan-2-yl)-1,3,4-oxadiazole]
88 | 48 | FC1(COc2ccccc2C2CCN([C@@H]3CCC4(C3)CN(c3nncs3)C4)CC2)COC1 [Example 1H, (R)-2-(6-(4-(2-((3-fluorooxetan-3-yl)methoxy)phenyl)piperidin-1-yl)-2-azaspiro[3.4]octan-2-yl)-1,3,4-thiadiazole]
0 | > 25000 | c1ccc(C2CCN([C@@H]3CCC4(C3)CN(c3cncnc3)C4)CC2)c(OC2CC3(COC3)C2)c1 [Example 1O, (R)-6-(4-(2-((2-oxaspiro[3.3]heptan-6-yl)oxy)phenyl)piperidin-1-yl)-2-(pyrimidin-5-yl)-2-azaspiro[3.4]octane]
97 | 46 | Fc1ccc(C2CCOC2)c(C2CCN([C@@H]3CCC4(C3)CN(c3nnco3)C4)CC2)c1 (mixture of isomers) [Example 2J, 2-((6R)-6-(4-(5-fluoro-2-(tetrahydrofuran-3-yl)phenyl)piperidin-1-yl)-2-azaspiro[3.4]octan-2-yl)-1,3,4-oxadiazole]
87 | 54 | Fc1cccc(C2CCN([C@@H]3CCC4(C3)CN(c3nncs3)C4)CC2)c1OC1COC1 [Example 3E, (R)-2-(6-(4-(3-fluoro-2-(oxetan-3-yloxy)phenyl)piperidin-1-yl)-2-azaspiro[3.4]octan-2-yl)-1,3,4-thiadiazole]
70 | 54 | COc1ccccc1C1CCN([C@@H]2CCC3(C2)CN(c2ccns2)C3)CC1 [Example 3I, (R)-5-(6-(4-(2-methoxyphenyl)piperidin-1-yl)-2-azaspiro[3.4]octan-2-yl)isothiazole]
66 | 135 | CC(C)(O)COc1ccccc1C1CCN([C@@H]2CCC3(C2)CN(c2nncs2)C3)CC1 [Example 3G, (R)-1-(2-(1-(2-(1,3,4-thiadiazol-2-yl)-2-azaspiro[3.4]octan-6-yl)piperidin-4-yl)phenoxy)-2-methylpropan-2-ol]
74 | 147 | CC(C)(O)COc1ccccc1C1CCN([C@@H]2CCC3(C2)CN(c2nnco2)C3)CC1 [Example 2A, (R)-1-(2-(1-(2-(1,3,4-oxadiazol-2-yl)-2-azaspiro[3.4]octan-6-yl)piperidin-4-yl)phenoxy)-2-methylpropan-2-ol]

Compound | Emax [%] | EC50 [nM]
CC(C)(O)CCOc1ccccc1C1CCN([C@@H]2CCC3(C2)CN(C(=O)C2COC2)C3)CC1 [Example 7CC, (R)-(6-(4-(2-(3-hydroxy-3-methylbutoxy)phenyl)piperidin-1-yl)-2-azaspiro[3.4]octan-2-yl)(oxetan-3-yl)methanone] | 94 | 6
